Measurements: US20250051277A1, “DELIVERY OF THERAPEUTIC ALKALOID COMPOUNDS” (Sensorium Therapeutics, Inc., priority 2021, published 2025)
Like-named read-outs stand apart in the source and are kept apart here.

Experiments:
[1] = Plasma Stability Assay of Example A4, human plasma; conditions: 37° C., 10 μM
[2] = format: physicochemical; conditions: SGF with pepsin, pH 1.5, 37° C., 0.5 mM
[3] = format: physicochemical; conditions: DI water, 25° C., 0.5 mM
[4] = Hydrolysis Assay of Example A1 (conversion by LCMS); format: physicochemical; conditions: pH = 2.0, 25° C., 0.5 mM, 0.01M HCl; 0-48 h
Experimental: The hydrolysis kinetics was under a certain temperature and measured by LCMS at a certain time interval. The corresponding LCMS chromatograms were recorded and the conversions were calculated. The hydrolysis conditions and the data were summarized in below table. LCMS spectra were obtained using Agilent 1200/G1956A or SHIMADZU LCMS-2020. Standard LCMS conditions were as follows (running time 1.55 minutes): • Acidic condition: Mobile Phase A: 0.0375% TFA in water (v/v). Mobile Phase B: 0.01875% TFA in acetonitrile (v/v); Column: Kinetex EVO C18 30*2.1 mm, 5 μm. • Basic condition: Mobile Phase A: 0.025% NH3·H2O in water (v/v). Mobile Phase B: Acetonitrile; Column: Kinetex EVO C18 2.1×30 mm, 5 μm. • Conversion (%)=peak area 1/(peak area 1+peak area 2)*100%, peak area 1 is the integration of hydrolyzed product, peak area 2 is the integration of starting material.

[5] = Plasma Stability Assay of Example A4, rat plasma; conditions: 37° C., 10 μM
SERT = SERT (Homo sapiens (Human), UniProt P31645); format: cell-based; conditions: stable 5HTT cells, 30 minutes at 37° C.
[6] = Pharmacokinetics of 043 and 001 in mice after oral 043 (75 mg/kg); format: in vivo, male C57BL/6 mice
Experimental: Total twelve male mice were used in this study. […] The formulation vehicle used was normal saline.
The plasma and brain concentration-time data of 043 and 001 was used for the pharmacokinetic analysis.
The extraction procedure for plasma/brain samples and the spiked plasma/brain calibration standards were identical:
A 25 μL of study sample plasma/brain (dilution applied to some samples) or spiked plasma calibration standard was added to individual pre-labeled micro-centrifuge tubes followed by 100 μL of internal standard prepared in acetonitrile (Glipizide-500 ng/mL) was added except for blank, where 100 μL of acetonitrile was added. Samples were vortexed for 5 minutes. Samples were centrifuged for 10 minutes at a speed of 4000 rpm at 4° C. Following centrifugation, 100 μL of clear supernatant was transferred in 96 well plates and analyzed using LC-MS/MS.

[7] = in vivo; for Plasma levels of 001: mouse, iv, 2 mg/kg
Experimental: Male C57/BL6 mice were used to evaluate each compound, with n=3 mice/time point.
Animals were administered through intravenous route with solution formulation at 2 mg/kg dose. […] Following blood collection, immediately, animals were sacrificed, and vena-cava was cut open and blood was drained. […] Brain samples were collected from set of three mice at each time point. […] Brain samples were homogenized using 2 volumes of ice-cold PBS (pH-7.4) of brain weight. […] Concentrations of compound (or compound and metabolite) in mouse plasma and brain samples were determined by fit for purpose LC-MS/MS method.

[8] = 5 μM
[9] = 5 μM; remark: listed apart in the source
[10] = analyte = label, single oral administration of 043, 75 mg/kg, male C57BL/6 mice
[11] = brain, analyte = label, single oral administration of 043, 75 mg/kg, male C57BL/6 mice
[12] = plasma, analyte = label, single oral administration of 043, 75 mg/kg, male C57BL/6 mice

COc1ccc([C@@]23CCC(OC(C)=O)=C[C@@H]2N(C)CC3)cc1OC [Compound 026, [(3aS,7aS)-3a-(3,4-dimethoxyphenyl)-1-methyl-3,4,5,7a-tetrahydro-2H-indol-6-yl]acetate]
Compound 001 (%) (metabolite mesembrine), Human Plasma ([1]; time 0.0 min): >99%
Prodrug (%) remaining, Human Plasma ([1]; time 0.0 min): 100.0%
Compound 001 (%) (metabolite mesembrine), Human Plasma ([1]; time 10 min): >99%
Prodrug (%) remaining, Human Plasma ([1]; time 10 min): 40.3%
Compound 001 (%) (metabolite mesembrine), Human Plasma ([1]; time 30 min): >99%
Prodrug (%) remaining, Human Plasma ([1]; time 30 min): 23.5%
Compound 001 (%) (metabolite mesembrine), Human Plasma ([1]; time 60 min): >99%
Prodrug (%) remaining, Human Plasma ([1]; time 60 min): 12.0%
Compound 001 (%) (metabolite mesembrine), Human Plasma ([1]; time 120 min): >99%
Prodrug (%) remaining, Human Plasma ([1]; time 120 min): 3.4%
Compound 001 (%) (metabolite mesembrine), Human Plasma ([1]; time 240 min): >99%
Prodrug (%) remaining, Human Plasma ([1]; time 240 min): 0.8%
Condition 1 Conversion (%) ([2]; time 1 min): 0%
Condition 1 Conversion (%) ([2]; time 5 min): 0%
Condition 1 Conversion (%) ([2]; time 30 min): 0%
Condition 1 Conversion (%) ([2]; time 1 h): 0%
Condition 1 Conversion (%) ([2]; time 4 h): 0%
Condition 1 Conversion (%) ([2]; time 24 h): 0%
Condition 2 Conversion (%) ([3]; time 1 min): 0%
Condition 2 Conversion (%) ([3]; time 5 min): 0%
Condition 2 Conversion (%) ([3]; time 30 min): 0%
Condition 2 Conversion (%) ([3]; time 1 h): 0%
Condition 2 Conversion (%) ([3]; time 4 h): 0%
Condition 2 Conversion (%) ([3]; time 24 h): 0%
Conversion (%) [4]: 0%
Notes (hydrolysis) [4]: Stable;
Compound 001 (%) (metabolite mesembrine), Rat Plasma ([5]; time 0.0 min): 96.2%
Prodrug (%) remaining, Rat Plasma ([5]; time 0.0 min): 100.0%
Compound 001 (%) (metabolite mesembrine), Rat Plasma ([5]; time 10 min): >99%
Prodrug (%) remaining, Rat Plasma ([5]; time 10 min): 0.0%
Compound 001 (%) (metabolite mesembrine), Rat Plasma ([5]; time 30 min): >99%
Prodrug (%) remaining, Rat Plasma ([5]; time 30 min): 0.0%
Compound 001 (%) (metabolite mesembrine), Rat Plasma ([5]; time 60 min): >99%
Prodrug (%) remaining, Rat Plasma ([5]; time 60 min): 0.0%
Compound 001 (%) (metabolite mesembrine), Rat Plasma ([5]; time 120 min): >99%
Prodrug (%) remaining, Rat Plasma ([5]; time 120 min): 0.0%
Compound 001 (%) (metabolite mesembrine), Rat Plasma ([5]; time 240 min): >99%
Prodrug (%) remaining, Rat Plasma ([5]; time 240 min): 0.0%

CO/N=C1/CC[C@@]2(c3ccc(OC)c(OC)c3)CCN(C)[C@H]2C1 [Compound 035, (Z, 3aS,7aS)-3a-(3,4-dimethoxyphenyl)-N-methoxy-1-methyl-2,3,4,5,7,7a-hexahydroindol-6-imine]
Condition 1 Conversion (%) ([2]; time 1 min): 0%
Condition 1 Conversion (%) ([2]; time 5 min): 0%
Condition 1 Conversion (%) ([2]; time 30 min): 5.4%
Condition 1 Conversion (%) ([2]; time 1 h): 13.1%
Condition 1 Conversion (%) ([2]; time 4 h): 35.2%
Condition 1 Conversion (%) ([2]; time 24 h): 38.9%
IC50 (SERT): < 50 nM

CO/N=C1\CC[C@@]2(c3ccc(OC)c(OC)c3)CCN(C)[C@H]2C1 [Compound 038, (E,3aS,7aS)-3a-(3,4-dimethoxyphenyl)-N-methoxy-1-methyl-2,3,4,5,7,7a-hexahydroindol-6-imine]
Condition 1 Conversion (%) ([2]; time 1 min): 0%
Condition 1 Conversion (%) ([2]; time 5 min): 0%
Condition 1 Conversion (%) ([2]; time 30 min): 1.3%
Condition 1 Conversion (%) ([2]; time 1 h): 11.9%
Condition 1 Conversion (%) ([2]; time 4 h): 31.3%
Condition 1 Conversion (%) ([2]; time 24 h): 49.9%
IC50 (SERT): < 50 nM

COc1ccc([C@]23CCN(C)[C@H]2CC2(CC3)OCCO2)cc1OC [Compound 043]
Condition 1 Conversion (%) ([2]; time 1 min): 0%
Condition 1 Conversion (%) ([2]; time 5 min): 0%
Condition 1 Conversion (%) ([2]; time 30 min): 0%
Condition 1 Conversion (%) ([2]; time 1 h): 0%
Condition 1 Conversion (%) ([2]; time 4 h): 0%
Condition 1 Conversion (%) ([2]; time 24 h): 0%
IC50 (SERT): < 50 nM
conversion of prodrug to 001 in vivo ([6]; 75 mg/kg po in mice): efficiently converts to 001 in vivo
Brain concentrations quantifiable up to [6, 10]: 4 h
brain exposure-Kp [6, 10]: < 1
AUClast [6, 11]: 1787.23 ng·h/mL
Cmax [6, 11]: 2684.81 ng/mL
Tmax [6, 11]: 30 min
AUClast [6, 12]: 2555.07 ng·h/mL
Cmax [6, 12]: 3392.53 ng/mL
Tmax [6, 12]: 30 min

COc1ccc(C23CCN(C)C2CC2(CC3)OCCO2)cc1OC (centres unmarked) [Compound 044]
Condition 1 Conversion (%) ([2]; time 1 min): 0%
Condition 1 Conversion (%) ([2]; time 5 min): 0%
Condition 1 Conversion (%) ([2]; time 30 min): 0%
Condition 1 Conversion (%) ([2]; time 1 h): 0%
Condition 1 Conversion (%) ([2]; time 4 h): 0%
Condition 1 Conversion (%) ([2]; time 24 h): 0%
IC50 (SERT): > 1000 nM

COc1ccc([C@]23CCN(C)[C@H]2CC2(CC3)SCCS2)cc1OC [Compound 045, (3′aS,7′aS)-3′a-(3,4-dimethoxyphenyl)-1′-methyl-spiro[1,3-dithiolane-2,6′-2,3,4,5,7,7a-hexahydroindole]]
Condition 1 Conversion (%) ([2]; time 1 min): 0%
Condition 1 Conversion (%) ([2]; time 5 min): 0%
Condition 1 Conversion (%) ([2]; time 30 min): 0%
Condition 1 Conversion (%) ([2]; time 1 h): 0%
Condition 1 Conversion (%) ([2]; time 4 h): 0%
Condition 1 Conversion (%) ([2]; time 24 h): 0%
IC50 (SERT): > 1000 nM

COc1ccc([C@@]23CCN(C)[C@@H]2CC2(CC3)SCCS2)cc1OC [Compound 046, (3′aR,7′aR)-3′a-(3,4-dimethoxyphenyl)-1′-methyl-spiro[1,3-dithiolane-2,6′-2,3,4,5,7,7a-hexahydroindole]]
Condition 1 Conversion (%) ([2]; time 1 min): 0%
Condition 1 Conversion (%) ([2]; time 5 min): 0%
Condition 1 Conversion (%) ([2]; time 30 min): 0%
Condition 1 Conversion (%) ([2]; time 1 h): 0%
Condition 1 Conversion (%) ([2]; time 4 h): 0%
Condition 1 Conversion (%) ([2]; time 24 h): 0%
IC50 (SERT): 100 to 500 nM

CCC(=O)OC1=C[C@@H]2N(C)CC[C@]2(c2ccc(OC)c(OC)c2)CC1 [Compound 317, [(3aS,7aS)-3a-(3,4-dimethoxyphenyl)-1-methyl-3,4,5,7a-tetrahydro-2H-indol-6-yl]propanoate]
quantifiable levels of 001 in plasma up to ([7]; male, C57BL/6, mouse): 60 min
Plasma levels of 001 [7]: not detectable
Condition 1 Conversion (%) ([2]; time 1 min): 0%
Condition 1 Conversion (%) ([2]; time 5 min): 0%
Condition 1 Conversion (%) ([2]; time 30 min): 0%
Condition 1 Conversion (%) ([2]; time 1 h): 0%
Condition 1 Conversion (%) ([2]; time 4 h): 0%
Condition 1 Conversion (%) ([2]; time 24 h): 0%
Condition 2 Conversion (%) ([3]; time 1 min): 0%
Condition 2 Conversion (%) ([3]; time 5 min): 0%
Condition 2 Conversion (%) ([3]; time 30 min): 0%
Condition 2 Conversion (%) ([3]; time 1 h): 0%
Condition 2 Conversion (%) ([3]; time 4 h): 0%
Condition 2 Conversion (%) ([3]; time 24 h): 0%

COc1ccc([C@@]23CCC(OC(=O)CC(C)C)=C[C@@H]2N(C)CC3)cc1OC [Compound 334, [(3aS,7aS)-3a-(3,4-dimethoxyphenyl)-1-methyl-3,4,5,7a-tetrahydro-2H-indol-6-yl]3-methylbutanoate]
Human Plasma Compound 001 (%) ([8]; 15 min): 63.6%
Human Plasma Compound 001 (%) ([8]; 30 min): 63.7%
Human Plasma Compound 001 (%) ([8]; 60 min): 65.4%
Human Plasma Compound 001 (%) ([8]; 120 min): 65.1%
Human Plasma Compound 001 (%) ([8]; 240 min): 63.8%
quantifiable levels of 001 in brain up to ([7]; male, C57BL/6, mouse): 2 h
quantifiable levels of 001 in plasma up to ([7]; male, C57BL/6, mouse): 60 min
Plasma levels of 001 [7]: not detectable
Condition 1 Conversion (%) ([2]; time 1 min): 0%
Condition 1 Conversion (%) ([2]; time 5 min): 0%
Condition 1 Conversion (%) ([2]; time 30 min): 0%
Condition 1 Conversion (%) ([2]; time 1 h): 0%
Condition 1 Conversion (%) ([2]; time 4 h): 0%
Condition 1 Conversion (%) ([2]; time 24 h): 0%
Condition 2 Conversion (%) ([3]; time 1 min): 0%
Condition 2 Conversion (%) ([3]; time 5 min): 0%
Condition 2 Conversion (%) ([3]; time 30 min): 0%
Condition 2 Conversion (%) ([3]; time 1 h): 0%
Condition 2 Conversion (%) ([3]; time 4 h): 0%
Condition 2 Conversion (%) ([3]; time 24 h): 0%
Mouse Plasma Compound 001 (%) ([9]; 15 min): 73.1%
Mouse Plasma Compound 001 (%) ([9]; 30 min): 70.9%
Mouse Plasma Compound 001 (%) ([9]; 60 min): 68.8%
Mouse Plasma Compound 001 (%) ([9]; 120 min): 70.0%
Mouse Plasma Compound 001 (%) ([9]; 240 min): 68.5%
